Legend:
[1] = target: ligand binding domain of human FXR (Homo sapiens (Human), UniProt Q96RI1); assay: FXR ligand binding assay (LanthaScreen TR-FRET, SRC2-2 peptide recruitment); settings: for pEC50: -log EC50, concentration required to produce 50% activation; for Emax: extent of activation relative to GW4064, read-out: % Efficacy
[2] = target: human Farnesoid X receptor ligand-binding domain/Gal4 DNA binding domain chimera (Homo sapiens (Human), UniProt Q96RI1); assay: Cell-based assay of FXR activation (FXR-UAS-bla HEK 293T beta-lactamase reporter); settings: cellular FXR beta-lactamase reporter assay; for Emax: HEK-293T, extent of activation relative to GW4064, read-out: % Efficacy; for EC50: FXR-UAS-bla HEK 293T cells, 16 h, pEC50 = -log EC50
human Farnesoid X receptor ligand-binding domain/Gal4 DNA binding domain chimera, sequence (Q96RI1 262-486, change not shown): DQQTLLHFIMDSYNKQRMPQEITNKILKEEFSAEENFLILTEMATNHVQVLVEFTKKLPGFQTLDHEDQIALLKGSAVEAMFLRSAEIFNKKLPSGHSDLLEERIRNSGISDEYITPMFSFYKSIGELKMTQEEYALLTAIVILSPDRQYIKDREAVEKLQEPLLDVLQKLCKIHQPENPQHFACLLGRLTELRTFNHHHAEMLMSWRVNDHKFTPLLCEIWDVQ
human Farnesoid X receptor ligand-binding domain/Gal4 DNA binding domain chimera, sequence (P04386 1-147 partner): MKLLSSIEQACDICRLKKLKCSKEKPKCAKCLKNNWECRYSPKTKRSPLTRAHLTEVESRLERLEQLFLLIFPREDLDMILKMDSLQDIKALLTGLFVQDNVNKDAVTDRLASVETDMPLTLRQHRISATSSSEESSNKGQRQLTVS
Method in brief: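 Readout is cleavage of the CCF4 FRET substrate (409 nm excitation, blue 447 nm signal) by beta-lactamase, expressed under UAS control after a Gal4–human FXR LBD chimera is activated in HEK 293T cells. Compounds were added as 3-fold dilutions for 16 h at 37 °C in 2% charcoal-stripped FBS medium. Curves were fit to a 3-parameter logistic equation to give pEC50, with % activation relative to GW4064.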

ligand binding domain of human FXR, sequence (Q96RI1 262-486): as the sequence (Q96RI1 262-486, change not shown) above

## CS(=O)(=O)NC(=O)CCc1ccc(N2C[C@@H]3C[C@H]2C[C@H]3OCc2c(-c3c(Cl)cccc3Cl)noc2C2CC2)c(F)c1 [Compound I-236, 3-(4-((1S,4S,5R)-5-((5-cyclopropyl-3-(2,6-dichlorophenyl)isoxazol-4-yl)methoxy)-2-azabicyclo[2.2.1]heptan-2-yl)-3-fluorophenyl)-N-(methylsulfonyl)propanamide]
[1]
  pEC50: 8.4
  Emax: 156%
[2]
  Emax: 95%
  EC50: 2.51 nM

## O=C(CCc1ccc(N2C[C@@H]3C[C@H]2C[C@H]3OCc2c(-c3c(Cl)cccc3Cl)noc2C2CC2)c(F)c1)NS(=O)(=O)C1CC1 [Compound I-237, 3-(4-((1S,4S,5R)-5-((5-cyclopropyl-3-(2,6-dichlorophenyl)isoxazol-4-yl)methoxy)-2-azabicyclo[2.2.1]heptan-2-yl)-3-fluorophenyl)-N-(cyclopropylsulfonyl)propanamide]
[1]
  pEC50: 8.7
  Emax: 162%
[2]
  Emax: 94%
  EC50: 2.51 nM

## O=C(CCc1ccc(N2C[C@@H]3C[C@H]2C[C@H]3OCc2c(-c3c(Cl)cccc3Cl)noc2C2CC2)c(F)c1)NS(=O)(=O)C1CCOCC1 [Compound I-238, 3-(4-((1S,4S,5R)-5-((5-cyclopropyl-3-(2,6-dichlorophenyl)isoxazol-4-yl)methoxy)-2-azabicyclo[2.2.1]heptan-2-yl)-3-fluorophenyl)-N-((tetrahydro-2H-pyran-4-yl)sulfonyl)propanamide]
[1]
  pEC50: 8.6
  Emax: 176%
[2]
  Emax: 95%
  EC50: 2.51 nM

## CS(=O)(=O)NC(=O)CCc1ccc(N2C[C@@H]3C[C@H]2C[C@H]3OCc2c(-c3c(F)cccc3Cl)noc2C2CC2)c(F)c1 [Compound I-239, 3-(4-((1S,4S,5R)-5-((3-(2-chloro-6-fluorophenyl)-5-cyclopropylisoxazol-4-yl)methoxy)-2-azabicyclo[2.2.1]heptan-2-yl)-3-fluorophenyl)-N-(methylsulfonyl)propanamide]
[1]
  pEC50: 8.2
  Emax: 176%
[2]
  Emax: 94%
  EC50: 7.94 nM

## O=C(CCc1ccc(N2C[C@@H]3C[C@H]2C[C@H]3OCc2c(-c3c(F)cccc3Cl)noc2C2CC2)c(F)c1)NS(=O)(=O)C1CC1 [Compound I-240, 3-(4-((1S,4S,5R)-5-((3-(2-chloro-6-fluorophenyl)-5-cyclopropylisoxazol-4-yl)methoxy)-2-azabicyclo[2.2.1]heptan-2-yl)-3-fluorophenyl)-N-(cyclopropylsulfonyl)propanamide]
[1]
  pEC50: 8.1
  Emax: 162%
[2]
  Emax: 92%
  EC50: 6.31 nM

## Cc1cccc(Cl)c1-c1noc(C2CC2)c1CO[C@@H]1C[C@@H]2C[C@H]1CN2c1ccc(CCC(=O)NS(C)(=O)=O)cc1F [Compound I-241, 3-(4-((1S,4S,5R)-5-((3-(2-chloro-6-methylphenyl)-5-cyclopropylisoxazol-4-yl)methoxy)-2-azabicyclo[2.2.1]heptan-2-yl)-3-fluorophenyl)-N-(methylsulfonyl)propanamide]
[1]
  pEC50: 8
  Emax: 176%
[2]
  Emax: 98%
  EC50: 10 nM

## Cc1cccc(Cl)c1-c1noc(C2CC2)c1CO[C@@H]1C[C@@H]2C[C@H]1CN2c1ccc(CCC(=O)NS(=O)(=O)C2CC2)cc1F [Compound I-242, 3-(4-((1S,4S,5R)-5-((3-(2-chloro-6-methylphenyl)-5-cyclopropylisoxazol-4-yl)methoxy)-2-azabicyclo[2.2.1]heptan-2-yl)-3-fluorophenyl)-N-(cyclopropylsulfonyl)propanamide]
[1]
  pEC50: 8.2
  Emax: 182%
[2]
  Emax: 97%
  EC50: 10 nM

## Cc1cccc(Cl)c1-c1noc(C2CC2)c1CO[C@@H]1C[C@@H]2C[C@H]1CN2c1ccc(CCC(=O)NS(=O)(=O)C2CCOCC2)cc1F [Compound I-243, 3-(4-((1S,4S,5R)-5-((3-(2-chloro-6-methylphenyl)-5-cyclopropylisoxazol-4-1)methoxy)-2-azabicyclo[2.2.1]heptan-2-yl)-3-fluorophenyl)-N-((tetrahydro-2H-pyran-4-yl)sulfonyl)propanamide]
[1]
  pEC50: 8.4
  Emax: 182%
[2]
  Emax: 98%
  EC50: 6.31 nM

## O=C(O)c1ccc(N2C(=O)[C@@H]3C[C@H]2C[C@H]3OCc2c(-c3c(Cl)cccc3Cl)noc2C2CC2)cc1 [Compound I-244, 4-[(1S,4R,5R)-5-{[5-cyclopropyl-3-(2,6-dichlorophenyl)-1,2-oxazol-4-yl]methoxy}-3-oxo-2-azabicyclo[2.2.1]heptan-2-yl]benzoic Acid]
[1]
  pEC50: 8.4
  Emax: 130%
[2]
  Emax: 102%
  EC50: 2 nM

## O=C(O)c1ccc(N2C(=O)[C@@H]3C[C@H]2C[C@@H]3OCc2c(-c3c(Cl)cccc3Cl)noc2C2CC2)cc1 [Compound I-245, 4-[(1S,4R,5S)-5-{[5-cyclopropyl-3-(2,6-dichlorophenyl)-1,2-oxazol-4-yl]methoxy}-3-oxo-2-azabicyclo[2.2.1]heptan-2-yl]benzoic Acid]
[1]
  pEC50: >5.5
[2]
  Emax: 0%
  EC50: < 31.6 nM

## CCc1cc(C(=O)O)cc2sc(N3C[C@@H]4C[C@H]3C[C@H]4OCc3c(-c4c(Cl)cccc4Cl)noc3C3CC3)nc12 [Compound I-246, 2-[(1S,4S,5R)-5-{[5-cyclopropyl-3-(2,6-dichlorophenyl)-1,2-oxazol-4-yl]methoxy}-2-azabicyclo[2.2.1]heptan-2-yl]-4-ethyl-1,3-benzothiazole-6-carboxylic Acid]
[1]
  pEC50: 8.5
  Emax: 136%
[2]
  Emax: 113%
  EC50: 0.251 nM

## CC(C)c1cc(C(=O)O)cc2sc(N3C[C@@H]4C[C@H]3C[C@H]4OCc3c(-c4c(Cl)cccc4Cl)noc3C3CC3)nc12 [Compound I-247, 2-[(1S,4S,5R)-5-{[5-cyclopropyl-3-(2,6-dichlorophenyl)-1,2-oxazol-4-yl]methoxy}-2-azabicyclo[2.2.1]heptan-2-yl]-4-(propan-2-yl)-1,3-benzothiazole-6-carboxylic Acid]
[1]
  pEC50: 8.5
  Emax: 128%
[2]
  Emax: 114%
  EC50: 2 nM

## CC(C)(C)c1cc(C(=O)O)cc2sc(N3C[C@@H]4C[C@H]3C[C@H]4OCc3c(-c4c(Cl)cccc4Cl)noc3C3CC3)nc12 [Compound I-248, 4-tert-butyl-2-[(1S,4S,5R)-5-{[5-cyclopropyl-3-(2,6-dichlorophenyl)-1,2-oxazol-4-yl]methoxy}-2-azabicyclo[2.2.1]heptan-2-yl]-1,3-benzothiazole-6-carboxylic Acid]
[1]
  pEC50: 7.8
  Emax: 116%
[2]
  Emax: 112%
  EC50: 0.631 nM

## O=C(O)c1cc(C2CCC2)c2nc(N3C[C@@H]4C[C@H]3C[C@H]4OCc3c(-c4c(Cl)cccc4Cl)noc3C3CC3)sc2c1 [Compound I-249, 4-cyclobutyl-2-[(1S,4S,5R)-5-{[5-cyclopropyl-3-(2,6-dichlorophenyl)-1,2-oxazol-4-yl]methoxy}-2-azabicyclo[2.2.1]heptan-2-yl]-1,3-benzothiazole-6-carboxylic Acid]
[1]
  pEC50: 8.4
  Emax: 134%
[2]
  Emax: 114%
  EC50: 0.158 nM

## O=C(O)c1cc(C2CCCC2)c2nc(N3C[C@@H]4C[C@H]3C[C@H]4OCc3c(-c4c(Cl)cccc4Cl)noc3C3CC3)sc2c1 [Compound I-250, 4-cyclopentyl-2-[(1S,4S,5R)-5-{[5-cyclopropyl-3-(2,6-dichlorophenyl)-1,2-oxazol-4-yl]methoxy}-2-azabicyclo[2.2.1]heptan-2-yl]-1,3-benzothiazole-6-carboxylic Acid]
[1]
  pEC50: 7.8
  Emax: 128%
[2]
  Emax: 114%
  EC50: 0.501 nM

## O=C(O)c1cc(C2CCOC2)c2nc(N3C[C@@H]4C[C@H]3C[C@H]4OCc3c(-c4c(Cl)cccc4Cl)noc3C3CC3)sc2c1 (stereo partly drawn) [Compound I-251, 2-[(1S,4S,5R)-5-{[5-cyclopropyl-3-(2,6-dichlorophenyl)-1,2-oxazol-4-yl]methoxy}-2-azabicyclo[2.2.1]heptan-2-yl]-4-(oxolan-3-yl)-1,3-benzothiazole-6-carboxylic Acid]
[1]
  pEC50: 9.1
  Emax: 133%
[2]
  Emax: 110%
  EC50: 0.2 nM

## O=C(O)c1cc([C@@H]2CCOC2)c2nc(N3C[C@@H]4C[C@H]3C[C@H]4OCc3c(-c4c(Cl)cccc4Cl)noc3C3CC3)sc2c1 [Compound I-252, 2-[(1S,4S,5R)-5-{[5-cyclopropyl-3-(2,6-dichlorophenyl)-1,2-oxazol-4-yl]methoxy}-2-azabicyclo[2.2.1]heptan-2-yl]-4-[(3S)-oxolan-3-yl]-1,3-benzothiazole-6-carboxylic Acid]
[1]
  pEC50: 8.6
  Emax: 135%
[2]
  Emax: 107%
  EC50: 0.2 nM

## O=C(O)c1cc([C@H]2CCOC2)c2nc(N3C[C@@H]4C[C@H]3C[C@H]4OCc3c(-c4c(Cl)cccc4Cl)noc3C3CC3)sc2c1 [Compound I-253, 2-[(1S,4S,5R)-5-{[5-cyclopropyl-3-(2,6-dichlorophenyl)-1,2-oxazol-4-yl]methoxy}-2-azabicyclo[2.2.1]heptan-2-yl]-4-[(3R)-oxolan-3-yl]-1,3-benzothiazole-6-carboxylic Acid]
[1]
  pEC50: 8.6
  Emax: 140%
[2]
  Emax: 107%
  EC50: 0.158 nM

## O=C(O)c1cc(C2CCOCC2)c2nc(N3C[C@@H]4C[C@H]3C[C@H]4OCc3c(-c4c(Cl)cccc4Cl)noc3C3CC3)sc2c1 [Compound I-254, 2-[(1S,4S,5R)-5-{[5-cyclopropyl-3-(2,6-dichlorophenyl)-1,2-oxazol-4-yl]methoxy}-2-azabicyclo[2.2.1]heptan-2-yl]-4-(oxan-4-yl)-1,3-benzothiazole-6-carboxylic Acid]
[1]
  pEC50: 9
  Emax: 143%
[2]
  Emax: 106%
  EC50: 0.316 nM

— patent US10793568B2, “Hormone receptor modulators for treating metabolic conditions and disorders” (ARDELYX, INC., priority 2016, dated 2020)
